# Measured values reported in patent US8647824B2, “Microbial reductive dehalogenation of vinyl chloride” (The Board of Trustees of the Leland Stanford Junior …, priority 2004, dated 2014).
# Values joined by “and” are separate entries in the source; they are usually repeats but may differ in a detail not shown here. Identical values can stand only once.
# B1: VC reductive dehalogenase: VC reductive dehalogenase partially purified from Dehalococcoides sp. strain VS; corrinoid/iron-sulfur cluster reductive dehalogenase (protein)
# chain: MSKFHKTISRRDFMKGLGLAGAGIGAVAASAPVFHDIDELVSSEANSTKDQPWYVKHREHFDPTITVDWDIFDRYDGYQHKGVYEGPPDAPFTSWGNRLQVRMSGEEQKKRILAAKKERFPGWDGGLHGRGDQRADALFYAVTQPFPGSGEEGHGLFQPYPDQPGKFYARWGLYGPPHDSAPPDGSVPKWEGTPEDNFLMLRAAAKYFGAGGVGALNLADPKCKKLIYKKAQPMTLGKGTYSEIGGPGMIDAKIYPKVPDHAVPINFKEADYSYYNDAEWVIPTKCESIFTFTLPQPQELNKRTGGIAGAGSYTVYKDFARVGTLVQMFIKYLGYHALYWPIGWGPGGCFTTFDGQGEQGRTGAAIHWKFGSSQRGSERVITDLPIAPTPPIDAGMFEFCKTCYICRDVCVSGGVHQEDEPTWDSGNWWNVQGYLGYRTDWSGCHNQCGMCQSSCPFTYLGLENASLVHKIVKGVVANTTVFNSFFTNMEKALGYGDLTMENSNWWKEEGPIYGFDPGT
# modifications: partially purified native enzyme; Dehalococcoides sp. VS
# What was measured:
# Pinellas culture = assay: Batch dechlorination and growth kinetics, Pinellas culture; type: cell-based, Dehalococcoides-like microorganisms
# Source text: (§1) Stock cultures. The Victoria mixed culture, containing strain VS, was maintained in a closed continuously stirred tank reactor (CSTR) as previously described. A VC enrichment of this culture, maintained over 5 years, was also used in these investigations. Liquid cultures of the three other cultures evaluated (Pinellas, KB-1/VC, and Dehalococcoides ethenogenes strain 195) were kept in anaerobic bottles, stored in an anaerobic chamber (10% H2, 10% CO2, 80% N2). The bottles were amended with TCE (1-3 μL neat liquid), VC (250 μL gas), and PCE (1-3 μL neat liquid) being added to each, respectively, approximately every two weeks.
# (§2) Batch studies. For the experimental portion of this research, two studies were undertaken, one a comparative VC growth study, and the other a comparative growth and substrate utilization study with different chlorinated ethenes. These studies compared the dechlorination abilities of Dehalococcoides ethenogenes strain 195 and the Dehalococcoides-like microorganisms in the three mixed cultures (Victoria, KB-1/VC, and Pinellas).
# (§3) For the first study, a VC enriched inoculum was first developed for each of the three mixed cultures. Here, bottles (120 mL) were filled with 60 mL of anaerobic media in an anaerobic chamber as previously described, and inoculated with 200 μL of each stock culture. Gaseous VC (99.5%) was added with a gas tight syringe (200 μL). The cultures were then moved to a shaker (60-80 rpm) in an anaerobic chamber (20±2° C.). Immediately after 5 μmol of ethene was formed in a bottle, 200 μL of the culture was transferred to fresh media (60 mL), in triplicate, and VC was again added (200 μL). The inoculum for the growth study was that formed after exactly 4 μmol of ethene was produced following this second transfer. To compare growth rates on VC, a range in concentration of each inocula (0.1, 0.3, 1, 3, 9 mL) was transferred to fresh media (as above) to result in a liquid volume of 60 mL, and gaseous VC (200 μL) was added to each. […] Hydrogen served as the electron donor and was non-limiting (>3%) in all studies. Headspace samples were periodically removed by syringe (250 μL) for chlorinated ethene analyses.
# (§4) The purpose of the second study was to compare dechlorination rates of PCE, TCE and DCE between the three different cultures that grew on VC (Victoria, KB-1/VC and Pinellas). The development of inocula here was performed with VC, just as in the first study. For the growth and substrate utilization experiments, triplicate bottles were set up for each culture containing 1 mL of inoculum and either neat PCE (0.4 μL), neat TCE (0.3 μL), saturated DCE solution (34 μL) or gaseous VC (200 μL). To further investigate TCE removal, bottles (120 mL) were filled with 20 mL of a highly enriched culture of strain VS made from the Victoria culture. Duplicate bottles were supplied with gaseous VC (50 μL on day 0, then 150 μL on day 3) or TCE (0.4 μL neat liquid). Dechlorination was followed until all VC or TCE was converted to ethene (day 12). The change in strain VS concentration during VC and TCE utilization was then determined both by competitive PCR and by an activity procedure evaluated previously for strain VS. In the activity procedure a non-growth limiting concentration of VC (150 μL) along with excess hydrogen is added to a culture and the initial dechlorination rate is measured (over <1 day). A good estimate of strain VS concentration can then be obtained using the previously determined strain VS maximum VC utilization rate (7.8×10^−10 μmol Cl^− (cell·d)^−1). The increase in strain VS concentration during TCE or VC utilization was determined with these two procedures on the culture before and after TCE and VC utilization.
# (§5) Comparative dechlorination and growth kinetics. With mixed cultures, the concentration of organisms carrying out a particular reaction is generally unknown and difficult to determine. […]
# [1] = test system: Dehalococcoides ethenogenes strain 195; assay: Batch dechlorination, D. ethenogenes strain 195 culture; type: cell-based; settings: cultures supplied with VC or DCE
# Source text: as §1, §2
# For the first study, a VC enriched inoculum was first developed for each of the three mixed cultures. Here, bottles (120 mL) were filled with 60 mL of anaerobic media in an anaerobic chamber as previously described, and inoculated with 200 μL of each stock culture. Gaseous VC (99.5%) was added with a gas tight syringe (200 μL). […]
# [2] = test system: Victoria mixed culture, containing strain VS; assay: Batch dechlorination and growth kinetics, Victoria mixed culture; type: cell-based, Dehalococcoides species strain VS
# Source text: as §1, §2, §3, §4, §5
# KB-1/VC culture = assay: Batch dechlorination and growth kinetics, KB-1/VC culture; type: cell-based, Dehalococcoides-like microorganisms
# Source text: as §1, §2, §3, §4, §5
# [3] = test system: VC reductive dehalogenase of Dehalococcoides sp. strain VS; assay: VC-reduction enzyme assay with Ti(III)-reduced methyl viologen as electron donor, gas chromatography; type: biochemical
# Procedure: Enzyme assays. Cells were harvested by centrifugation (20,000 g, 20 min, 4° C.) under strictly anoxic conditions using the anoxic chamber, washed and resuspended in degassed MOPS buffer (20 mM, pH 7.2) supplemented with 2 mM DTE and 0.2 mM titanium(III)NTA (buffer A). The buffer was incubated overnight in the anoxic chamber before addition of reducing agents. Cell-free extracts were obtained by anoxic disruption of cells by French Press treatment (138 MPa; two passages), followed by two centrifugation steps (30,000×g, 15 min, 4° C.).
# Assays of VC-reduction were conducted as described previously in 2-ml glass vials under an N2/H2 atmosphere with Ti(III)-reduced methyl viologen as artificial electron donor (Rosner et al.) The protein concentration in the assay varied between 10 and 100 μg/ml. The test was started by addition of gaseous VC to the assay mix (total aqueous volume 0.3 ml), and change in VC and ethene concentrations were followed with time by gas chromatography. Experiments testing for reduction of liquid chlorinated ethenes (PCE, TCE, DCE-isomers) were carried out essentially as described above with the appropriate substitution of the chlorinated ethene. The chlorinated compounds were added from aqueous stock solutions.
# Oxygen sensitivity of VC-reducing activity in cell-free extract was investigated in buffer amended with resazurin as redox indicator. Prior to addition of VC, the assay was exposed to air until the resazurin underwent a color-change from colorless to pink. Subsequently, the assay was rendered anoxic again by exchanging the gas phase inside the anoxic chamber followed by addition of Ti(III)NTA (5 mM final concentration). All enzyme assays were carried out at ambient temperature, and given activities are means of at least three independent measurements.
# Partial purification of VC reductase. Protein purification was performed at 4° C. in the anoxic chamber. The membrane fraction was obtained by centrifugation of cell-free extract at 100,000×g for 90 min at 4° C. The pellet was resuspended in 1 ml buffer A supplemented with 2 mM 3-[(3-cholamidopropyl)dimethylammonio]-1-propanesulfonic acid (CHAPS), and incubated for 1 h on ice. After subsequent centrifugation (100,000×g, 90 min, 4° C.) the solubilized membrane fraction was diluted with an equal volume of buffer B (50 mM 1,3-Bis[tris(hydroxymethyl)methylamino]propane (Bis-Tris Propane), pH 9.6, 2 mM dithiothreitol, 0.2 mM titanium(III)NTA, 20 mM CHAPS), and loaded on a 1-ml HighTrap Q column (Amersham Pharmacia) equilibrated with buffer C (same as buffer B but with 2 mM CHAPS). VC reductive dehalogenase activity was eluted as a single peak (at 550 to 580 mM NaCl) with 10 ml buffer C followed by a 40-ml linear gradient from 0-700 mM NaCl in buffer C at a flow of 1 ml/min. Fractions containing the highest activity were pooled and mixed with an equal volume of buffer A containing 20 mM CHAPS, and applied to a Superose-6 column equilibrated with the same buffer. Enzyme activity was eluted with buffer A at a flow rate of 0.2 ml/min. The protein concentration of the samples was determined according to Bradford with bovine serum albumin as a standard.
molecule,measurement,setting,value
"Cl/C=C\Cl [DCE, cis-1,2-dichloroethene]",Maximum Growth Rate,Pinellas culture; 95% confidence interval,0.43 day⁻¹ and 0.43 ± 0.00 day⁻¹
same,dechlorination by D. ethenogenes strain 195,[1],did dechlorinate DCE to VC
same,Maximum Growth Rate,"[2]; VS Mixed (Victoria) culture, 95% confidence interval, least-squares model fit",0.46 ± 0.04 day⁻¹
same,Maximum Growth Rate,KB-1/VC culture; 95% confidence interval,0.44 ± 0.02 day⁻¹
"ClC(Cl)=C(Cl)Cl [PCE, tetrachloroethene]",PCE dechlorination,Pinellas culture,failed to dechlorinate
same,lag period before PCE dechlorination,[2]; Victoria mixed culture,6 to 12 days
same,PCE dechlorination,KB-1/VC culture,failed to dechlorinate
same,transformation during the course of the enzyme assay,[3]; 2 h,not transformed
same,effect on the reduction rate of VC,[3]; saturating concentrations of PCE or TCE present,not affected
B1,Sp act (VC reduction),[3]; step: Anionic exchange chromotagraphy,638 mU/mg protein
same,Sp act (VC reduction),"[3]; step: Cell-free extract, 1 mU = 1 nmol VC per minute",220 mU/mg protein
same,Sp act (VC reduction),[3]; step: Gelfiltration,990 mU/mg protein
same,Sp act (VC reduction),[3]; step: Membrane fraction,346 mU/mg protein
same,Sp act (VC reduction),[3]; step: Solubilized membrane fraction,308 mU/mg protein
